Like-named read-outs stand apart in the source and are kept apart here. Marks after values point to notes of the source that are not given here.
Tests used:
[1] = cited from earlier work
AAMU-Ab = assay: Competitive antigen ELISA, cross-reactivity of AAMU-Ab; assay type: binding, rabbit; settings: for % Cross-Reaction AAMU-Ab: competitive antigen ELISA, 0 = absence of inhibition or inhibition no higher than 40% at highest concentration tested (5×10^−3 M)
Method: (§1) Four mature females New Zealand white rabbits (Charles River Canada, St-Constant, Que., Canada) are used for antibody production. The protocol employed in this study was approved by the McGill University Animal Care Committee in accordance with the guidelines from the Canadian Council on Animal Care. Antibodies of the present invention may be monoclonal or polyclonal antibodies.
(§2) A 0.5 mL aliquot of the emulsion ([…] of antigen) is injected per rabbit intramuscularly or subcutaneously. Rabbits are subsequently boosted at intervals of three weeks with […] of antigen emulsified in incomplete Freund's adjuvant. […] Antisera are stored at 4° C. in the presence of 0.01% sodium azide.
(§3) Buffers and water without additives are filtered through millipore filters and kept for 1 week. BSA, antibodies, Tween™ 20 and horse radish peroxidase conjugates are added to these buffers and water just prior to use. Urine samples are usually collected 4 hours after drinking a cup of coffee (instant or brewed with approximately 100 mg of caffeine per cup) and stored at −80° C. The urine samples are diluted 10 times with sodium phosphate buffer (620 mosm, pH 7.50) and are subsequently diluted with water to give concentrations of AAMU and 1X no higher than 3×10^−6 M in the ELISA. All the pipettings are done with an eight-channel pipette, except those of the antibody and sample solutions. Starting with the last well, 100 μL of a carbonate buffer (100 mM, pH 9.6) containing 2.5 μg mL−^1 antibodies are added to each well. After 90 min. at room temperature, the wells are washed three times with […] of TPB: isotonic sodium phosphate buffer (310 mosm, pH 7.50) containing 0.05% Tween™ 20.
(§4) After the initial wash, unoccupied sites are blocked by incubation for 90 min. at room temperature with 100 μL TBP containing 3% BSA. The wells are washed four times with 100 μL TPB. […] The microplate is gently shaken with an orbital shaker at room temperature for 3-4 hours. The wells are washed three times with 100 μL TPB containing 1% BSA and three times with water containing 0.05% Tween™ 20. To the washed plate is added 150 μL of a substrate buffer composed of citric acid (25 mM) and sodium phosphate dibasic buffer (50 mM, pH 5.0) containing 0.06% hydrogen peroxide and 0.04% o-phenylenediamine hydrochloride.
(§5) Buffers and water without additives were filtered through millipore filters and kept for 1 week. BSA, antibodies, Tween™ 20 and horse radish peroxidase conjugates were added to these buffers and water just prior to use. Urine samples were usually collected 4 hours after drinking a cup of coffee (instant or brewed with approximately 100 mg of caffeine per cup) and stored at −80° C. They were diluted 10 times with sodium phosphate buffer (620 mosm, pH 7.50) and were subsequently diluted with water to give concentrations of AAMU and 1X no higher than 3×10^−6 M in the ELISA. All the pipettings were done with an eight-channel pipette, except those of the antibody and sample solutions. Starting with the last well, 100 μL of a carbonate buffer (100 mM, pH 9.6) containing 2.5 μg mL−^1 antibodies was pipetted. After 90 min. at room temperature, the wells were washed three times with 100 μL of TPB: isotonic sodium phosphate buffer (310 mosm, pH 7.50) containing 0.05% Tween™ 20.
(§6) After the initial wash, unoccupied sites were blocked by incubation for 90 min. at room temperature with 100 μL TBP containing 3% BSA. The wells were washed four times with 100 μL TPB. […] The microplate was gently shaken with an orbital shaker at room temperature for 3-4 hours. The wells were washed three times with […] TPB containing 1% BSA and three times with water containing 0.05% Tween™ 20. To the washed plate was added 150 μL of a substrate buffer composed of citric acid (25 mM) and sodium phosphate dibasic buffer (50 mM, pH 5.0) containing 0.06% hydrogen peroxide and 0.04% o-phenylenediamine hydrochloride.

1X-Ab = assay: Competitive antigen ELISA, cross-reactivity of 1X-Ab; assay type: binding, rabbit; settings: for % Cross-Reaction 1X-Ab: competitive antigen ELISA, 0 = absence of inhibition or inhibition no higher than 40% at highest concentration tested (5×10^−3 M)
Method: as §1, §2, §3, §4, §5, §6

[2] = cited from earlier work; remark: listed apart in the source

## Nc1ccc(S(=O)(=O)c2ccc(N)cc2)cc1 [dapsone]
[1]; fast acetylators
  adverse reactions to dapsone: 17%
[1]; slow acetylators
  adverse reactions to dapsone: 46%

## Cn1c(=O)c2c(ncn2C)n(C)c1=O [1,3,7-Trimethyl Xanthine (Caffeine), 1,3,7-Trimethyl Xanthine]
AAMU-Ab
  % Cross-Reaction AAMU-Ab: 0%
1X-Ab
  % Cross-Reaction 1X-Ab: 0%

## O=c1[nH]c(=O)c2[nH]c(=O)[nH]c2[nH]1 [Uric acid]
AAMU-Ab
  % Cross-Reaction AAMU-Ab: 0%
1X-Ab
  % Cross-Reaction 1X-Ab: 0%

## Cn1c(=O)[nH]c2nc[nH]c2c1=O [1-Methyl Xanthine (1X), 1-Methyl Xanthine]
AAMU-Ab
  % Cross-Reaction AAMU-Ab: 0%
1X-Ab
  % Cross-Reaction 1X-Ab: 100%
1X-Ab; read-out: concentration required for 50% inhibition in the competitive antigen ELISA, 1X-Ab
  IC50: 10 µM

## Cn1c(=O)[nH]c(=O)c2[nH]cnc21 [3-Methyl Xanthine]
AAMU-Ab
  % Cross-Reaction AAMU-Ab: 0%
1X-Ab
  % Cross-Reaction 1X-Ab: 0%

## CC(=O)Nc1c(N)[nH]c(=O)[nH]c1=O [5-Acetamino-6-amino-uracil]
AAMU-Ab
  % Cross-Reaction AAMU-Ab: 0.6%
1X-Ab
  % Cross-Reaction 1X-Ab: 0%

## O=c1[nH]c(=O)c2[nH]cnc2[nH]1 [Xanthine]
AAMU-Ab
  % Cross-Reaction AAMU-Ab: 0^a %
1X-Ab
  % Cross-Reaction 1X-Ab: 0%

## O=c1cc[nH]c(=O)[nH]1 [Uracil]
AAMU-Ab
  % Cross-Reaction AAMU-Ab: 0%
1X-Ab
  % Cross-Reaction 1X-Ab: 0%

## Cn1c(=O)[nH]c2ncn(C)c2c1=O [1,7-Dimethyl Xanthine (Paraxanthine), 1,7-Dimethyl Xanthine]
AAMU-Ab
  % Cross-Reaction AAMU-Ab: 0%
1X-Ab
  % Cross-Reaction 1X-Ab: 0.5%

## Cc1nc2[nH]c(=O)[nH]c(=O)c2[nH]1 [8-Methyl Xanthine]
AAMU-Ab
  % Cross-Reaction AAMU-Ab: 0%
1X-Ab
  % Cross-Reaction 1X-Ab: 0%

## CC(=O)Nc1c(N)n(C)c(=O)[nH]c1=O [5-Acetamino-6-amino-1-methyluracil]
AAMU-Ab
  % Cross-Reaction AAMU-Ab: 100%
AAMU-Ab; read-out: concentration required for 50% inhibition in the competitive antigen ELISA, AAMU-Ab
  IC50: 1.5 µM
1X-Ab
  % Cross-Reaction 1X-Ab: 0%

## Cn1c(=O)[nH]c2[nH]c(=O)[nH]c2c1=O [1-Methyluric acid]
AAMU-Ab
  % Cross-Reaction AAMU-Ab: 0%
1X-Ab
  % Cross-Reaction 1X-Ab: 11%

## Cn1cnc2[nH]c(=O)[nH]c(=O)c21 [7-Methyl Xanthine]
AAMU-Ab
  % Cross-Reaction AAMU-Ab: 0%
1X-Ab
  % Cross-Reaction 1X-Ab: 0%

## O=c1[nH]cnc2nc[nH]c12 [Hypoxanthine]
AAMU-Ab
  % Cross-Reaction AAMU-Ab: 0%
1X-Ab
  % Cross-Reaction 1X-Ab: 0%

## Cn1c(=O)c2[nH]cnc2n(C)c1=O [1,3-Dimethyl Xanthine (Theophylline), 1,3-Dimethyl Xanthine]
AAMU-Ab
  % Cross-Reaction AAMU-Ab: 0%
1X-Ab
  % Cross-Reaction 1X-Ab: 0.2%

## Cn1c(=O)[nH]c2[nH]c(=O)n(C)c2c1=O [1,7-Dimethyluric acid]
AAMU-Ab
  % Cross-Reaction AAMU-Ab: 0%
1X-Ab
  % Cross-Reaction 1X-Ab: 0%

## Cn1cnc2c1c(=O)[nH]c(=O)n2C [3,7-Dimethyl Xanthine (Theobromine), 3,7-Dimethyl Xanthine]
AAMU-Ab
  % Cross-Reaction AAMU-Ab: 0%
1X-Ab
  % Cross-Reaction 1X-Ab: 0%

## CC(=O)Nc1c(N)n(C)c(=O)n(C)c1=O [5-Acetamino-6-amino-1,3-dimethyluracil]
AAMU-Ab
  % Cross-Reaction AAMU-Ab: 0%
1X-Ab
  % Cross-Reaction 1X-Ab: 0%

## COc1cccc(C2(O)CCCCC2CN(C)C)c1 (stereo not drawn) [tramadol]
[2]; extensive metabolizers (CYP2D6), 15 individuals
  experimental pain model procedures with statistically significant effects: seven of seven
[2]; poor metabolizers (CYP2D6), 12 individuals
  experimental pain model procedures with statistically significant effects: three of seven

## Nc1nc2nc[nH]c2c(=O)[nH]1 [Guanine]
AAMU-Ab
  % Cross-Reaction AAMU-Ab: 0%
1X-Ab
  % Cross-Reaction 1X-Ab: 0%

Reference: patent US20030077222A1, “Individualization of therapy with analgesics” (McGill University, priority 2001, published 2003)
